From DBAASP
Values after ≈ are worked out from the molar mass of the structure shown. One block for each compound: values may come before it.

Tests used:
Assay in all cases: ≥ marks a high value that may be exact or a test limit, other limits are often not marked, values filed in µg/mL are converted to µM
[1] = system: Pseudomonas aeruginosa ATCC 27853
[2] = system: Escherichia coli ATCC 25922
[3] = system: Staphylococcus aureus ATCC 33591
[4] = system: Enterococcus faecium ATCC 700221
[5] = system: Staphylococcus aureus ATCC 25923
[6] = system: Pseudomonas aeruginosa ATCC 15692
[7] = system: Bacillus subtilis KCTC 1998
[8] = system: Escherichia coli KCTC 1682
[9] = system: Staphylococcus aureus KCTC 1621
[10] = system: Pseudomonas aeruginosa KCTC 1637
[11] = system: Salmonella typhimurium CCARM 8009
[12] = system: Acinetobacter baumannii CCARM 12035
[13] = system: Escherichia coli CCARM 1229
[14] = system: Salmonella typhimurium KCTC 1926
[15] = system: Bacillus subtilis KCTC 3068
[16] = system: Pseudomonas aeruginosa CCARM 2095
[17] = system: Enterococcus faecalis KCTC 2011
[18] = system: Staphylococcus aureus ATCC 29213
[19] = system: Staphylococcus epidermidis RP62A
[20] = system: Pseudomonas aeruginosa ATCC 15442
[21] = system: Staphylococcus aureus ATCC 6538
[22] = system: Erwinia amylovora PMV 6076
[23] = system: Pseudomonas syringae pv. syringae EPS 94
Candida krusei ATCC 6258 = system: Candida krusei ATCC 6258
[24] = system: Candida albicans ATCC 90028
Candida albicans SC5314 = system: Candida albicans SC5314
[25] = system: Candida parapsilosis ATCC 22019
[26] = system: Shigella dysenteriae CMCC 51302
[27] = system: Salmonella typhimurium CMCC 50013
Streptococcus mutans = system: Streptococcus mutans
[28] = system: Listeria monocytogenes CMCC 54002
[29] = system: Klebsiella pneumoniae ATCC 700603
[30] = system: Acinetobacter baumannii ATCC BAA-1605

- MIC [1]: 12.5 µM (≈ 22.7 µg/mL)
- MIC [2]: 3.1 µM (≈ 5.62 µg/mL)
- MIC [3]: 3.1 µM (≈ 5.62 µg/mL)
- MIC [4]: 1.6 µM (≈ 2.9 µg/mL)
Structure (SMILES): CC[C@H](C)[C@H](NC(=O)[C@H](CCCCN)NC(=O)[C@H](CCCCN)NC(=O)[C@H](CC(C)C)NC(=O)[C@H](CC(C)C)NC(=O)[C@H](CCCCN)NC(=O)[C@H](CCCCN)NC(=O)[C@@H](NC(=O)[C@@H](NC(=O)[C@H](CC(=O)O)NC(=O)[C@H](Cc1ccccc1)NC(=O)[C@H](CC(C)C)NC(=O)CN)C(C)C)[C@@H](C)CC)C(=O)N[C@@H](CCCCN)C(=O)NCC(=O)N[C@@H](CC(C)C)C(N)=O [GLFDVIKKLLKKIKGL]

- MIC [5]: 0.008 mM (≈ 18.9 µg/mL)
- MIC [6]: 2 µM (≈ 4.73 µg/mL)
- MIC [2]: 2 µM (≈ 4.73 µg/mL)
- MIC [7]: 1 µM (≈ 2.37 µg/mL)
Structure (SMILES): CC[C@H](C)[C@H](NC(=O)[C@H](CCCCN)NC(=O)[C@H](CO)NC(=O)[C@@H]1CCCN1C(=O)[C@H](CC(C)C)NC(=O)[C@H](CCCCN)NC(=O)[C@@H]1CCCN1C(=O)[C@H](CC(C)C)NC(=O)[C@H](CCCN=C(N)N)NC(=O)[C@H](CCCCN)NC(=O)[C@H](Cc1ccccc1)NC(=O)[C@@H](NC(=O)[C@H](CCCCN)NC(=O)[C@H](CCCCN)NC(=O)[C@H](C)N)C(C)C)C(=O)N[C@@H](Cc1c[nH]c2ccccc12)C(=O)N[C@@H](CC(N)=O)C(=O)N[C@@H](Cc1c[nH]c2ccccc12)C(=O)N[C@@H](CCCCN)C(N)=O [AKKVFKRLPKLPSKIWNWK]

- MIC [5]: 9.16 mM (≈ 12500 µg/mL)
- MIC [18]: 4.54 mM (≈ 6200 µg/mL)
- MIC [19]: ≥ 9.16 mM
- MIC [20]: ≥ 9.16 mM
- MIC [21]: 9.16 mM (≈ 12500 µg/mL)
Structure (SMILES): CC[C@H](C)[C@H](NC(=O)[C@@H](N)CCC(=O)O)C(=O)N[C@@H](CCC(=O)O)C(=O)N[C@@H](CCCCN)C(=O)N[C@@H](Cc1ccccc1)C(=O)N[C@@H](CC(=O)O)C(=O)N[C@@H](CCCCN)C(=O)N[C@@H](CO)C(=O)N[C@@H](CCCCN)C(=O)N[C@@H](CC(C)C)C(=O)N[C@@H](CCCCN)C(=O)O [EIEKFDKSKLK]

- MIC [5]: 9.99 mM (≈ 12500 µg/mL)
- MIC [18]: 9.99 mM (≈ 12500 µg/mL)
- MIC [19]: ≥ 4.95 mM
- MIC [20]: ≥ 9.99 mM
- MIC [21]: 9.99 mM (≈ 12500 µg/mL)
Structure (SMILES): CC(C)C[C@H](NC(=O)[C@H](CCCCN)NC(=O)[C@H](CO)NC(=O)[C@H](CCCCN)NC(=O)[C@H](CC(=O)O)NC(=O)[C@H](Cc1ccccc1)NC(=O)[C@H](CO)NC(=O)[C@H](C)NC(=O)[C@@H](NC(=O)[C@@H](N)CCC(=O)O)C(C)C)C(=O)N[C@@H](CCCCN)C(=O)O [EVASFDKSKLK]

- MIC [29]: 93 µM (≈ 137 µg/mL)
- MIC [30]: ≥ 46.7 µM
- MIC [1]: 93 µM (≈ 137 µg/mL)
- MIC [2]: 186 µM (≈ 275 µg/mL)
- MIC [3]: ≥ 93 µM
- MIC [4]: ≥ 186 µM
Structure (SMILES): CC[C@H](C)[C@H](NC(=O)[C@H](CCCN=C(N)N)NC(=O)[C@H](CCCCN)NC(=O)[C@H](Cc1ccccc1)NC(=O)[C@H](CC(C)C)NC(=O)[C@H](CCCCN)NC(=O)[C@@H](N)CCCN=C(N)N)C(=O)N[C@@H](CC(C)C)C(=O)N[C@@H](CCCCN)C(=O)N[C@@H](Cc1ccc(O)cc1)C(=O)N[C@@H](CC(C)C)C(N)=O [RKLFKRILKYL]

Continued, compound first:

Structure (SMILES): CC(C)[C@H](NC(=O)[C@H](C)N)C(=O)N[C@@H](C)C(=O)N[C@H](C(=O)N[C@H](C(=O)NCC(=O)N[C@@H](CCC(N)=O)C(=O)N[C@@H](C)C(=O)N[C@@H](C)C(=O)N[C@H](C(=O)N[C@H](C(=O)N[C@H](C(=O)N[C@@H](CCCCN)C(N)=O)C(C)C)C(C)C)[C@@H](C)O)C(C)C)C(C)C [AVAVVGQAATVVK]
- MIC [8]: ≥ 128 µM
- MIC [9]: ≥ 128 µM
- MIC [10]: ≥ 128 µM
- MIC [11]: ≥ 128 µM
- MIC [12]: ≥ 128 µM
- MIC [13]: ≥ 128 µM
- MIC [14]: ≥ 128 µM
- MIC [15]: ≥ 128 µM
- MIC [16]: ≥ 128 µM
- MIC [17]: ≥ 128 µM

Structure (SMILES): CC[C@H](C)[C@H](NC(=O)[C@H](CCCCN)NC(=O)[C@H](CCCCN)NC(=O)[C@H](Cc1ccccc1)NC(=O)[C@H](CC(C)C)NC(=O)[C@H](CCCCN)NC(=O)[C@H](CCCCN)NC(=O)[C@H](C)NC(=O)[C@@H]1CCCN1C(=O)CNC(=O)[C@H](C)NC(=O)[C@H](CC(C)C)NC(=O)[C@H](Cc1ccc(O)cc1)NC(=O)[C@H](CCCCN)NC(=O)[C@H](CC(C)C)NC(=O)[C@@H](NC(=O)[C@H](CCCCN)NC(=O)[C@H](CCCCN)NC(=O)[C@H](Cc1ccccc1)NC(=O)[C@H](CC(C)C)NC(=O)[C@H](CCCCN)NC(=O)[C@@H](N)CCCCN)[C@@H](C)CC)C(=O)N[C@@H](CC(C)C)C(=O)N[C@@H](CCCCN)C(=O)N[C@@H](Cc1ccc(O)cc1)C(=O)N[C@@H](CC(C)C)C(=O)O [KKLFKKILKYLAGPAKKLFKKILKYL]
- MIC [22]: 3.54 µM (≈ 11 µg/mL)
- MIC [23]: 3.54 µM (≈ 11 µg/mL)

Structure (SMILES): CC[C@H](C)[C@H](NC(=O)CN)C(=O)N[C@@H](Cc1c[nH]c2ccccc12)C(=O)N[C@@H](CCCCN)C(=O)N[C@@H](CCCCN)C(=O)N[C@@H](Cc1c[nH]c2ccccc12)C(=O)N[C@H](C(=O)N[C@@H](CCCCN)C(=O)N[C@@H](CCCCN)C(=O)N[C@@H](Cc1c[nH]c2ccccc12)C(=O)N[C@@H](CC(C)C)C(=O)N[C@@H](CCCCN)C(=O)N[C@@H](CCCCN)C(=O)N[C@@H](CC(C)C)C(=O)N[C@@H](CCCCN)C(=O)N[C@@H](CC(N)=O)C(=O)N[C@@H](CC(C)C)C(=O)N[C@@H](Cc1ccccc1)C(N)=O)[C@@H](C)CC [GIWKKWIKKWLKKLKNLF]
- MIC (Candida krusei ATCC 6258): 6.79 µM (≈ 16 µg/mL)
- MIC [24]: 27.1 µM (≈ 64 µg/mL)
- MIC (Candida albicans SC5314): 13.6 µM (≈ 32 µg/mL)
- MIC [25]: 13.6 µM (≈ 32 µg/mL)

Structure (SMILES): CC(C)C[C@H](NC(=O)CN)C(=O)N[C@@H](CCCN=C(N)N)C(=O)N[C@@H](CCCN=C(N)N)C(=O)N[C@@H](C)C(=O)N[C@@H](CC(C)C)C(=O)N[C@@H](CC(C)C)C(=O)N[C@@H](CCCN=C(N)N)C(=O)N[C@@H](CC(C)C)C(=O)N[C@@H](CC(C)C)C(=O)N[C@@H](CCCN=C(N)N)C(=O)N[C@@H](CO)C(=O)N[C@@H](CC(C)C)C(=O)N[C@@H](CCCN=C(N)N)C(=O)N[C@@H](CCCN=C(N)N)C(=O)N[C@@H](CC(C)C)C(=O)N[C@@H](CC(C)C)C(=O)N[C@@H](CC(C)C)C(=O)N[C@@H](CCCN=C(N)N)C(=O)N[C@@H](C)C(=O)O [GLRRALLRLLRSLRRLLLRA]
- MIC [26]: 8 µM (≈ 19.3 µg/mL)
- MIC [18]: 0.032 mM (≈ 77.3 µg/mL)
- MIC [27]: 4 µM (≈ 9.66 µg/mL)
- MIC (Streptococcus mutans): 8 µM (≈ 19.3 µg/mL)
- MIC [2]: 8 µM (≈ 19.3 µg/mL)
- MIC [28]: 16 µM (≈ 38.7 µg/mL)
